Results on one compound are retold here after ChEMBL document CHEMBL4251700, “Novel Staphyloxanthin Inhibitors with Improved Potency against Multidrug Resistant Staphylococcus aureus” (ACS Med Chem Lett, 2018).

SMILES strings stand for the structures. Active and inactive are the calls of the source. No cut-off for these calls is given here.

Assay [1] deals with T1, 4,4'-diapophytoene desaturase (4,4'-diaponeurosporene-forming) (Staphylococcus aureus (strain MW2)) (UniProt Q8NUQ6).
T1 sequence (whole entry): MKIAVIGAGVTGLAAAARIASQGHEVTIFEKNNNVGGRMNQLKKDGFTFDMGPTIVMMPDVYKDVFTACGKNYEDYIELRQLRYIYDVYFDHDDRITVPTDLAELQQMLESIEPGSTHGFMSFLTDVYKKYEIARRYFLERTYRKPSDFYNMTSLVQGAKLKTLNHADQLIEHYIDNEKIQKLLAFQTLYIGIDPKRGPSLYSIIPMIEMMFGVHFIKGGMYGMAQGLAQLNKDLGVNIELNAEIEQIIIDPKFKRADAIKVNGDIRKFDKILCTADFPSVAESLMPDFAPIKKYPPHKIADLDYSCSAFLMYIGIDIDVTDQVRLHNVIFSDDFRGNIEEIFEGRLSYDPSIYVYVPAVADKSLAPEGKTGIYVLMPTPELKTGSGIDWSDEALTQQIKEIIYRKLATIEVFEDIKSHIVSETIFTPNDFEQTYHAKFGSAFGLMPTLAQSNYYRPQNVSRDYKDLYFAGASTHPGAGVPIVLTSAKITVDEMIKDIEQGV
Kind of assay: Inhibition of CrtN in Staphylococcus aureus USA400 MW2 assessed as H2O2-induced bacterial death by measuring reduction in bacterial survival at 1 uM preincubated for 24 hrs followed by H2O2 addition measured after 30 mins by serial dilution method. Conditions: Staphylococcus aureus subsp. aureus MW2.

Another assay concerns Staphylococcus aureus. Kind of assay: Antibacterial activity against vancomycin-intermediate Staphylococcus aureus Mu50 infected in BALB/c mouse assessed as reduction of bacterial burden in heart at 0.4 mg, ip bid for 3.5 days administered 6 hrs post bacterial infection measured 84 hrs post infection relative to control. The class given is functional. On the set-up: scale not given: the % may be the effect or the level left.

On to `CN(C/C=C/C=C/c1ccc(C(F)(F)F)cc1)Cc1ccc2c(c1)OCCO2.Cl`, for which, in assay [1], the inhibition entry is “Active”. In the assay on Staphylococcus aureus, the Activity is on record as 99%.
